# Values quoted from earlier work in patent publication US4241053A, “Novel nitrosourea compounds and process for preparing the same” (Tanabe Seiyaku Co., Ltd., priority 1978, dated 1980).
# System: leukemic cells
# Details: cited from earlier work
compound,measurement,value
O=NN(CCCl)C(=O)NC1O[C@H](CO)[C@@H](O[C@H]2O[C@H](CO)[C@@H](O)[C@H](O)[C@H]2O)[C@H](O)[C@H]1O (stereo partly drawn) [1-(2-chloroethyl)-1-nitroso-3-(D-maltosyl)urea],anti-tumor activity against leukemic cells,show anti-tumor activity
